Data reported in US12616753B2, “HSP70 inhibitors and methods of using same” (THE WISTAR INSTITUTE, priority 2020, dated 2026).

Key:
[1] = tested on: CRC cell lines (SW620, HT-29, HCT 116+/−p53, RKO, and LS411N); assay: Alamar Blue cell viability assay, human CRC panel; type: cell-based; details: Homo sapiens; 72 hours; read-out: IC50, cytotoxicity in all CRC cell lines
Experimental: FIGS. 4A-4F show AP-4-139B is efficacious as a single agent against human CRC in vitro and in vivo. FIG. 4A: Three CRC cell lines (HT-29, LS411N, and SW620) were treated with 10 μM of PET-16 or AP-4-139B for 48 hours. Cell were then subjected to viability assays using Trypan Blue exclusion. *** p<0.001. […] FIGS. 4B-4C: A panel of six CRC cell lines (SW620, HT-29, HCT 116+/−p53, RKO, and LS411N) were plated at a density of 1,000 cells per well in 96-well plates. The next day, cells were treated with the indicated inhibitors for 72 hours. Cells were then subjected to the Alamar Blue cell viability assays. Shown are representative IC50 values of an average of six technical replicates and two biological replicates. FIG. 4D: 2.5×10^6 HT-29 cells were injected subcutaneously into the right flank of NSG mice. Once tumors reached an approximate volume of 100 mm^3, mice were separated randomly into two groups: control vs. AP-4-139B. Mice were treated with 12.5 mg/kg AP-4-139B three times a week. All mice were euthanized 22 days after the start of treatment. Tumor volumes were recorded using digital calipers and using the formula v=length×width^2×0.52. *** p<0.001. n=10 mice per group. FIG. 4E: Immunohistochemistry (IHC) analysis of HT-29 xenograft tumors treated with AP-4-139B. Shown are representative images (4-6 random fields of view per condition) of Ki67 (proliferation) and Cleaved Lamin A (cell death). n=4 mice per group. Scale bar=100 μm. Respective IgG antibody was used as the negative control.

MC38 tumors = assay: Flow cytometric immunophenotyping of MC38 tumors; type: in vivo, mouse; details: 10 mg/kg every 48 hours, 20 days
Experimental: FIG. 6A: 1×10^6 MC38 cells were injected subcutaneously into the right flank of 6-8-week-old male C57Bl/6 mice. Once tumors reached an approximate volume of 100 mm^3, mice were treated with AP-4-139B (10 mg/kg) every 48 hours. 20 days after the start of treatment, tumors were excised, weighed, minced and digested. Tumor-infiltrating and splenic conventional CD4 (cCD4) (Live CD45^+ DUMP^− CD3^+CD4^+Foxp3^−), Tregs (Live CD45^+ DUMP^− CD3^+CD4^+Foxp3^+), CD8 (Live CD45^+ DUMP^− CD3^+CD8^+) T-cells, and Dendritic Cells (Live CD45^+ DUMP^− CD3^−CD11c^+MHCII^+) numbers were assessed by flow cytometry. * p<0.05, n.s. not significant. n=8 mice per group. FIG. 6B: MC38 and HT-29 cells were treated with the indicated concentrations of AP-4-139B for either 8 or 24 hours; media was collected and subjected to WB for HMGB1. Data shown are representative of three technical replicates. FIG. 6C: MC38 and HT-29 cells were treated with the indicated concentrations of AP-4-139B for three hours and then assayed for extracellular ATP release. […]
Tumors were excised, weighed with an electronic scale, minced and digested in 5 mL HBSS containing 1 mg/ml Type 1 Collagenase from Clostridium histolyticum (Sigma-Aldrich) for 30 minutes at 37° C. […] Samples were analyzed using FACSymphony A3 (BD Biosciences) flow cytometer equipped with 5 lasers. Data were analyzed using FlowJo Version 10 and GraphPad Prism software.

MC38 cells = assay: Cell death of MC38 cells pre-treated for vaccination (Trypan Blue staining); type: cell-based, mouse; details: 10 μM, 48 h
Experimental: For in vivo metastasis assays, 8-10 week old male C57Bl/6 mice were injected with 4×10^5 MC38 cells. Mice were then treated with either vehicle or 10 mg/kg AP-4-139B every 48 hours for 3 weeks. At the end of the study, mice were euthanized, lungs were harvested and fixed in formalin for analysis of lung tumor nodules by H&E. For anti-tumor vaccination studies, MC38 cells were treated with 10 μM AP-4-139B for 48 h, resulting in approximately 20% cell death (as assessed by Trypan Blue staining). 2×10^6 pre-treated MC38 cells or PBS was inoculated subcutaneously into the left flank of 8-10 week old male C57BL/6 mice. Ten days later, mice were challenged on the right flank with 5×10^5 live MC38 cells, and tumor growth and incidence were monitored 3 times per week. The absence of tumors was scored as an indication for efficient antitumor vaccination.

c1ccc(-c2cn3nc(CCCCCC[P+](c4ccccc4)(c4ccccc4)c4ccccc4)sc3n2)cc1 [AP-4-139B, Triphenyl(6-(6-phenylimidazo[2,1-b][1,3,4]thiadiazol-2-yl)hexyl)phosphonium bromide]
IC50 [1]: 1500 to 3000 nM
abundance of immune cell types in spleens (MC38 tumors): no changes in abundance
immune cell infiltrates (CD4+ T cell, CD8+ T cell, dendritic cells, Tregs) in tumors (MC38 tumors): significantly increased immune cell infiltrates
cell death of MC38 cells (MC38 cells): approximately 20%
